From patent publication US20150031668A1, “CHROMAN DERIVATIVES AS TRPM8 INHIBITORS” (AMGEN INC., priority 2013, published 2015)
Where a name gives a salt, the structure may show the parent alone.

The compounds below were run against T1, human TRPM8 (Homo sapiens, UniProt Q7Z2W7) (assay: Luminescence readout assay for measuring intracellular calcium (aequorin, CHO cells expressing human TRPM8; icilin, L-menthol or cold activation)). Conditions: CHO cells expressing human TRPM8, icilin activation (1 μM), aequorin luminescence; read-out: hTRPM8 IC50.
T1 construct: expressed in transfected cells; host or cells: Chinese hamster ovary (CHO) cells, T-REx tetracycline-inducible expression system (Invitrogen); co-transfected with pcDNA3.1 aequorin
Assay type: cell-based
Summary of the method: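 Activation was by 1 μM icilin, 100 μM L-menthol (test compound 2.5 min ahead) or cold buffer below 10° C (compound 1 min ahead). Calcium rise measured as aequorin luminescence in CHO cells with tetracycline-inducible human TRPM8.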

T1 sequence (Q7Z2W7 whole entry): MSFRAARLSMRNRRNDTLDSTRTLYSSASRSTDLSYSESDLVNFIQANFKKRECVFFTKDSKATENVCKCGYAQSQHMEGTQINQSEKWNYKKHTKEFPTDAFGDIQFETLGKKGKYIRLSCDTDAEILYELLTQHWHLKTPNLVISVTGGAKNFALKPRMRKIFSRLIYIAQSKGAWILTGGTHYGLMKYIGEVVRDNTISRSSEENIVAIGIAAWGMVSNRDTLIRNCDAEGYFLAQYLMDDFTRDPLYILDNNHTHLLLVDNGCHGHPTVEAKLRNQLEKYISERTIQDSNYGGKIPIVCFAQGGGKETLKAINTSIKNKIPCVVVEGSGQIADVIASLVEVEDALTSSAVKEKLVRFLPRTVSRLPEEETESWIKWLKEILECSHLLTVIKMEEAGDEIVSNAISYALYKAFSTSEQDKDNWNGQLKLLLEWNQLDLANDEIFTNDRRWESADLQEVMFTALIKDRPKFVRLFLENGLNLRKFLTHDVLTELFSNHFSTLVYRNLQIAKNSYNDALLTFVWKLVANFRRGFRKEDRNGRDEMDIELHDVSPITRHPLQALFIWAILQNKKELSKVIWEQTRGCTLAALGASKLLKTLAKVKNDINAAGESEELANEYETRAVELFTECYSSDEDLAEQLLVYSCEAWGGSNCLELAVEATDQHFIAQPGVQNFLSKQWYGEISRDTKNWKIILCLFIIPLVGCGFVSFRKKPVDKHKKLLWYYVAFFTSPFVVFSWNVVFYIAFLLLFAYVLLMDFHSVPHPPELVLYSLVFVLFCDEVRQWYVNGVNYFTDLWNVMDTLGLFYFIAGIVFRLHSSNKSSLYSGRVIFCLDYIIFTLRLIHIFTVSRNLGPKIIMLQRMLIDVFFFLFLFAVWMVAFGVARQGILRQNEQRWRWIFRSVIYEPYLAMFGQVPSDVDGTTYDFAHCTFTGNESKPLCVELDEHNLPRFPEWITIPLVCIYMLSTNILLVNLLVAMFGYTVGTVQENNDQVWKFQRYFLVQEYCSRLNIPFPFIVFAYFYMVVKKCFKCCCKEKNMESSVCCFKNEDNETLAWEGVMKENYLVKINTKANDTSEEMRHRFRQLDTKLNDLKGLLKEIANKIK

SMILES | IC50 [nM]
CN(C)C(=O)c1cccc(-c2ccc([C@@]3(NC(=O)c4ccc(F)cc4)CCOc4cccnc43)cc2)c1 [Example 129, (S)-4′-(4-(4-fluorobenzamido)-3,4-dihydro-2H-pyrano[3,2-b]pyridin-4-yl)-N,N-dimethyl-[1,1′-biphenyl]-3-carboxamide] | 2600
O=C(N[C@]1(c2ccc(OC(F)(F)F)cc2)CCOc2cccnc21)c1ccc2nccn2c1 [Example 240, (S)-N-(4-(4-(trifluoromethoxy)phenyl)-3,4-dihydro-2H-pyrano[3,2-b]pyridin-4-yl)imidazo[1,2-a] pyridine-6-carboxamide formate] | 40.6
Cc1nc(-c2cccc(C(=O)N[C@]3(c4ccc(OC(F)(F)F)cc4)CCOc4cccnc43)c2)no1 [Example 275, (S)-3-(5-methyl-1,2,4-oxadiazol-3-yl)-N-(4-(4-(trifluoromethoxy)phenyl)-3,4-dihydro-2H-pyrano[3,2-b]pyridin-4-yl)benzamide formate] | 34
O=C(N[C@]1(c2ccc(-c3ccccc3)cc2)CCOc2cccnc21)c1ccc(F)cc1 [Example 113, (S)—N-(4-([1,1′-biphenyl]-4-yl)-3,4-dihydro-2H-pyrano[3,2-b]pyridin-4-yl)-4-fluorobenzamide] | 53
O=C(N[C@]1(c2ccc(OC(F)(F)F)cc2)CCOc2cccnc21)c1cc2nccc(C3CC3)n2n1 [Example 224, (S)-7-cyclopropyl-N-(4-(4-(trifluoromethoxy)phenyl)-3,4-dihydro-2H-pyrano[3,2-b]pyridin-4-yl) pyrazolo[1,5-a] pyrimidine-2-carboxamide formate] | 116
Cn1ncc2ccc(C(=O)N[C@]3(c4ccc(OC(F)(F)F)cc4)CCOc4cccnc43)cc21 [Example 263, (S)-1-methyl-N-(4-(4-(trifluoromethoxy)phenyl)-3,4-dihydro-2H-pyrano[3,2-b]pyridin-4-yl)-1H-indazole-6-carboxamide formate] | 95
O=C(N[C@]1(c2ccc(OC(F)(F)F)cc2)CCOc2cccnc21)C1Cc2ccccc2N1 (stereo partly drawn) [Example 245, N-((S)-4-(4-(trifluoromethoxy)phenyl)-3,4-dihydro-2H-pyrano[3,2-b]pyridin-4-yl)indoline-2-carboxamide formate] | 254
COC(=O)c1ccc(NC(=O)N[C@]2(c3ccc(OC(F)(F)F)c(F)c3)CCOc3cccnc32)cc1 [Example 90, (S)-methyl 4-(3-(4-(3-fluoro-4-(trifluoromethoxy)phenyl)-3,4-dihydro-2H-pyrano[3,2-b]pyridin-4-yl)ureido)benzoate] | 36
O=C(N[C@]1(c2ccc(OC(F)(F)F)cc2)CCOc2cccnc21)c1c[nH]c2ncccc12 [Example 217, (S)-N-(4-(4-(trifluoromethoxy)phenyl)-3,4-dihydro-2H-pyrano[3,2-b]pyridin-4-yl)-1H-pyrrolo[2,3-b] pyridine-3-carboxamide fonnate] | 46
Cn1cc(C(=O)NC2(c3ccc(C(F)(F)F)cc3)CCOc3cccnc32)ccc1=O (stereo not drawn) [Example 79, 1-methyl-6-oxo-N-(4-(4-(trifluoromethyl)phenyl)-3,4-dihydro-2H-pyrano[3,2-b]pyridin-4-yl)-1,6-dihydropyridine-3-carboxamide] | 334
O=C(O)c1ccc(C(=O)N[C@@]2(c3ccc(OC(F)(F)F)c(F)c3)COc3cccnc32)nc1 [Example 161, (R)-6-((3-(3-Fluoro-4-(trifluoromethoxy)phenyl)-2,3-dihydrofuro[3,2-b]pyridin-3-yl)carbamoyl)nicotinic acid] | 42
O=C(N[C@]1(c2ccc(-c3cnc(Cl)nc3)cc2)CCOc2cccnc21)c1ccc(F)cc1 [Example 139, (S)-N-(4-(4-(2-chloropyrirnidin-5-yl)phenyl)-3,4-dihydro-2H-pyrano[3,2-b]pyridin-4-yl)-4-fluorobenzamide] | 122
O=C(N[C@]1(c2ccc(C(F)(F)F)cc2)CCOc2cccnc21)c1ccc(=O)[nH]c1 [Example 60, (S)-6-oxo-N-(4-(4-(trifluoromethyl)phenyl)-3,4-dihydro-2H-pyrano[3,2-b]pyridin-4-yl)-1,6-dihydropyridine-3-carboxamide] | 125
O=C(Nc1cccnc1)NC1(c2ccc(C(F)(F)F)cc2)CCCc2cccnc21 (stereo not drawn) [Example 71, 1-(pyridin-3-yl)-3-(8-(4-(trifluoromethyl)phenyl)-5,6,7,8-tetrahydroquinolin-8-yl)urea] | 143
CCOC(=O)c1ncc(C(=O)N[C@]2(c3ccc(OC(F)(F)F)c(F)c3)CCOc3cccnc32)[nH]1 [Example 162] | 92
O=C(NC1(c2ccc(Cl)c(Cl)c2)CCOc2cccnc21)c1ccc(F)cc1 (stereo not drawn) [Example 10, N-(4-(3,4-dichlorophenyl)-3,4-dihydro-2H-pyrano[3,2-b]pyridin-4-yl)-4-fluorobenzamide] | 163
Nc1ccc(-c2ccc([C@@]3(NC(=O)c4ccc(F)cc4)CCOc4cccnc43)cc2)cc1 [Example 147, (S)-N-(4-(4′-amino-[1,1′-biphenyl]-4-yl)-3,4-dihydro-2H-pyrano[3,2-b]pyridin-4-yl)-4-fluorobenzamide] | 1530
O=C(Nc1cc(F)c(O)c(F)c1)N[C@]1(c2ccc(OC(F)(F)F)c(F)c2)CCOc2cccnc21 [Example 97, (S)-1-(3,5-difluoro-4-hydroxyphenyl)-3-(4-(3-fluoro-4-(trifluoromethoxy)phenyl)-3,4-dihydro-2H-pyrano[3,2-b]pyridin-4-yl)urea] | 159
O=C(O)c1ccc(C(=O)N[C@]2(c3ccc(OC(F)(F)F)cc3F)CCOc3cccnc32)nc1 [Example 312, (S)-6-((4-(2-fluoro-4-(trifluoro-methoxy)phenyl)-3,4-dihydro-2H-pyrano[3,2-b]pyridin-4-yl)carbamoyl) nicotinic acid] | 104
O=C(N[C@]1(c2ccc(OC(F)(F)F)c(F)c2)CCOc2cccnc21)c1ccc(Br)s1 [Example 203, (S)-5-bromo-N-(4-(3-fluoro-4-(trifluoromethoxy)phenyl)-3,4-dihydro-2H-pyrano[3,2-b]pyridin-4-yl) thiophene-2-carboxamide] | 74
O=C(N[C@]1(c2ccc(OC(F)(F)F)cc2)CCOc2cccnc21)c1cc2ccccc2o1 [Example 236, (S)-N-(4-(4-(trifluoromethoxy)phenyl)-3,4-dihydro-2H-pyrano[3,2-b]pyridin-4-yl)benzofuran-2-carboxamide formate] | 66.5
O=C(N[C@]1(c2ccc(C(F)(F)F)cc2)CCOc2cccnc21)c1ccc2cc[nH]c2c1 [Example 36, (S)-N-(4-(4-(trifluoromethyl)phenyl)-3,4-dihydro-2H-pyrano[3,2-b]pyridin-4-yl)-1H-indole-6-carboxamide] | 36
N#CCc1ccc([C@@]2(NC(=O)c3ccc(F)cc3)CCOc3cccnc32)cc1 [Example 111, (S)—N-(4-(4-(cyanomethyl)phenyl)-3,4-dihydro-2H-pyrano[3,2-b]pyridin-4-yl)-4-fluorobenzamide] | 1520

Now those with a lower IC50, led by results:

IC50 [nM] | SMILES
9 | O=C(N[C@]1(c2ccc(OC(F)(F)F)cc2)CCOc2cccnc21)c1cnc2ccccc2n1 [Example 255, (S)-N-(4-(4-(trifluoromethoxy)phenyl)-3,4-dihydro-2H-pyrano[3,2-b]pyridin-4-yl)quinoxaline-2-carboxamide formate]
15 | COC(=O)c1ccc(C(=O)N[C@]2(c3ccc(OC(F)(F)F)c(F)c3)CCOc3cccnc32)cc1NC(C)=O [Example 295, (S)-methyl 2-acetamido-4-((4-(3-fluoro-4-(trifluoromethoxy)phenyl)-3,4-dihydro-2H-pyrano[3,2-b]pyridin-4-yl)carbamoyl)benzoate]
14 | O=C(N[C@]1(c2ccc(C(F)(F)F)cc2)CCOc2cccnc21)c1ccccc1 (single isomer, unassigned) [Example 1]
28 | Cc1c(C(=O)O)cc(C(=O)N[C@]2(c3ccc(OC(F)(F)F)c(F)c3)CCOc3cccnc32)n1C [Example 303]
24 | O=C(N[C@]1(c2ccc(OC(F)(F)F)cc2)CCOc2cccnc21)c1cnc2ccccc2c1 [Example 252, (S)-N-(4-(4-(trifluoromethoxy)phenyl)-3,4-dihydro-2H-pyrano[3,2-b]pyridin-4-yl)quinoline-3-carboxamide formate]
19 | O=C(N[C@]1(c2ccc(OC(F)(F)F)cc2)CCOc2cccnc21)c1ccc(-c2cnco2)cc1 [Example 273, (S)-4-(oxazol-5-yl)-N-(4-(4-(trifluoromethoxy)phenyl)-3,4-dihydro-2H-pyrano[3,2-b]pyridin-4-yl)benzamide formate]
15 | Cn1ncc2cc(C(=O)N[C@]3(c4ccc(OC(F)(F)F)c(F)c4)CCOc4cccnc43)ccc21 [Example 53, (S)-N-(4-(3-fluoro-4-(trifluoromethoxy)phenyl)-3,4-dihydro-2H-pyrano[3,2-b]pyridin-4-yl)-1-methyl-1H-indazole-5-carboxamide]
7 | CC(C)Cc1cc(C(=O)N[C@]2(c3ccc(OC(F)(F)F)c(F)c3)CCOc3cccnc32)ccc1C(=O)O [Example 293, (S)-4-((4-(3-fluoro-4-(trifluoromethoxy)phenyl)-3,4-dihydro-2H-pyrano[3,2-b]pyridin-4-yl)carbamoyl)-2-isobutylbenzoic acid]
16 | O=C(N[C@]1(c2ccc(OC(F)(F)F)cc2)CCOc2cccnc21)c1ccc2cc[nH]c(=O)c2c1 [Example 271, (S)-1-oxo-N-(4-(4-(trifluoromethoxy)phenyl)-3,4-dihydro-2H-pyrano[3,2-b]pyridin-4-yl)-1,2-dihydroisoquinoline-7-carboxamide formate]
4 | O=C(N[C@]1(c2ccc(OC(F)(F)F)c(F)c2)CCOc2cccnc21)c1ccc2oc(=O)[nH]c2c1 [Example 57, (S)-N-(4-(3-fluoro-4-(trifluoromethoxy)phenyl)-3,4-dihydro-2H-pyrano[3,2-b]pyridin-4-yl)-2-oxo-2,3-dihydrobenzo[d]oxazole-5-carboxamide]
